Source: patent publication US8183239B2, “Substituted piperazines and piperidines as modulators of the neuropeptide Y2 receptor” (Janssen Pharmaceutica NV, priority 2005, dated 2012)

Biological target: T1, Y2 receptors (Homo sapiens, UniProt P49146)
T1 construct: endogenous in cells; host or cells: KAN-Ts cells (membranes)
T1 sequence (P49146 1-381): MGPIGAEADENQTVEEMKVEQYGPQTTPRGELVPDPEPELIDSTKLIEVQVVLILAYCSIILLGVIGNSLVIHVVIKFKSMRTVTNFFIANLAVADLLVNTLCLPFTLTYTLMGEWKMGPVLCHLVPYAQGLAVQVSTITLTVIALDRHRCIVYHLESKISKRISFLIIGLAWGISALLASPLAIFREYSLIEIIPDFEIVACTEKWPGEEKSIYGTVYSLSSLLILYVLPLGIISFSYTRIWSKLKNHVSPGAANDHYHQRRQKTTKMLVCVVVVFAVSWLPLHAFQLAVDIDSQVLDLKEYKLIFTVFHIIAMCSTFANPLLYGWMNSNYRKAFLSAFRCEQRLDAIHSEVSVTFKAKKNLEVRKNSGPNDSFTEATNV
Assay: Radioligand binding assay ([125I]PYY, KAN-Ts cell membranes)
Settings: Table 1, [125I]PYY 80 pM, average of results, read-out: IC50
Procedure, shortened: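 Membranes from KAN-Ts cells endogenously expressing Y2 incubated 1 h at rt with 80 pM [^125I]PYY ± test compound in HEPES buffer with NaCl, Ca^2+ and Mg^2+. Bound radioactivity collected by filtration; specific binding defined with […]. IC50 from sigmoidal fit, averaged over 3-8 duplicate experiments.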

Compound	IC50 [nM]
COC(=O)C(c1ccccc1)N1CCN(c2ccc(NC(=O)c3ccc[nH]3)cc2)CC1 (stereo not drawn) [Example 104, Phenyl-(4-{4-[(1H-pyrrole-2-carbonyl)-amino]-phenyl}-piperazin-1-yl)-acetic acid methyl ester]	7000
COC(=O)C(c1ccccc1)N1CCN(c2ccc(NC(=O)c3ccccn3)cc2)CC1 (stereo not drawn) [Example 106, Phenyl-(4-{4-[(pyridine-2-carbonyl)-amino]-phenyl}-piperazin-1-yl)-acetic acid methyl ester]	12000
COC(=O)C(c1ccccc1)N1CCN(c2ccc(NC(=O)c3cncnc3)cc2)CC1 (stereo not drawn) [Example 108, Phenyl-(4-{4-[(pyrimidine-5-carbonyl)-amino]-phenyl}-piperazin-1-yl)-acetic acid methyl ester]	26000
COC(=O)C(c1ccccc1)N1CCN(c2ccc(NC(=O)CC(C)C)cc2)CC1 (stereo not drawn) [Example 109, {4-[4-(3-Methyl-butyrylamino)-phenyl]-piperazin-1-yl}-phenyl-acetic acid methyl ester]	6100
COC(=O)C(c1ccccc1)N1CCN(c2ccc(NC(=O)c3ccccc3Br)cc2)CC1 (stereo not drawn) [Example 110, {4-[4-(2-Bromo-benzoylamino)-phenyl]-piperazin-1-yl}-phenyl-acetic acid methyl ester]	2400
CCN(CC)C(=O)C(c1ccccc1)N1CCN(c2ccc(NC(=O)c3ccccc3Br)cc2F)CC1 (stereo not drawn) [Example 111, 2-Bromo-N-{4-[4-(diethylcarbamoyl-phenyl-methyl)-piperazin-1-yl]-3-fluoro-phenyl}-benzamide]	340
CCC(CC)C(=O)N(C)c1ccc(N2CCN(C(C(=O)N(CC)CC)c3ccccc3)CC2)c(F)c1 (stereo not drawn) [Example 112, N-{4-[4-(Diethylcarbamoyl-phenyl-methyl)-piperazin-1-yl]-3-fluoro-phenyl}-2-ethyl-N-methyl-butyramide]	450
CCNC(=O)C(c1ccccc1)N1CCN(c2ccc(C(=O)NC(CC)CC)cc2F)CC1 (stereo not drawn) [Example 113, 4-[4-(Ethylcarbamoyl-phenyl-methyl)-piperazin-1-yl]-N-(1-ethyl-propyl)-3-fluoro-benzamide]	5750
COC(=O)C(c1ccccc1)N1CCN(c2ccc(C(=O)Nc3ccccc3)cc2)CC1 (stereo not drawn) [Example 114, Phenyl-[4-(4-phenylcarbamoyl-phenyl)-piperazin-1-yl]-acetic acid methyl ester]	10000
CCC(CC)NC(=O)c1ccc(N2CCN(C(C(=O)OC)c3ccccc3)CC2)c(F)c1 (stereo not drawn) [Example 115, {4-[4-(1-Ethyl-propylcarbamoyl)-2-fluoro-phenyl]-piperazin-1-yl}-phenyl-acetic acid methyl ester]	3200
CCC(CC)NC(=O)c1ccc(N2CCN(C(C(=O)OC)c3ccccc3)CC2)cc1 (stereo not drawn) [Example 116, {4-[4-(1-Ethyl-propylcarbamoyl)-phenyl]-piperazin-1-yl}-phenyl-acetic acid methyl ester]	10000
CCNC(=O)C(c1ccccc1)C1CCN(c2ccc(C(=O)NC(CC)CC)cc2F)CC1 (stereo not drawn) [Example 117, 4-[4-(Ethylcarbamoyl-phenyl-methyl)-piperidin-1-yl]-N-(1-ethyl-propyl)-3-fluoro-benzamide]	10000
CC(=O)N(c1ccccc1)c1ccc(N2CCN(C(C(=O)Nc3ccc4c(c3)CCC4)c3ccccc3)CC2)cc1 (stereo not drawn) [Example 118, 2-{4-[4-(Acetyl-phenyl-amino)-phenyl]-piperazin-1-yl}-N-indan-5-yl-2-phenyl-acetamide]	3400
CCC(C)C(=O)Nc1ccc(N2CCC(C(C(=O)OC)c3ccccc3)CC2)cc1 (stereo not drawn) [Example 120, {1-[4-(2-Methyl-butyrylamino)-phenyl]-piperidin-4-yl}-phenyl-acetic acid methyl ester]	2400
CCN(CC)C(=O)C(c1ccccc1)N1CCN(c2ccc(NC(=O)[C@H]3CCOC3)cc2C#N)CC1 (stereo partly drawn) [Example 122, (S)-Tetrahydro-furan-3-carboxylic acid {3-cyano-4-[4-(diethylcarbamoyl-phenyl-methyl)-piperazin-1-yl]-phenyl}-amide]	8
CCN(CC)C(=O)C(c1ccccc1)N1CCN(c2ccc(NC(=O)[C@@H]3CCOC3)cc2C#N)CC1 (stereo partly drawn) [Example 123, (R)-Tetrahydro-furan-3-carboxylic acid {3-cyano-4-[4-(diethylcarbamoyl-phenyl-methyl)-piperazin-1-yl]-phenyl}-amide]	17
CCC(CC)C(=O)Nc1ccc(N2CCN(C(C(=O)N(CC)CC)c3cc(Br)ccc3F)CC2)c(F)c1 (stereo not drawn) [Example 124, N-(4-{4-[(5-Bromo-2-fluoro-phenyl)-diethylcarbamoyl-methyl]-piperazin-1-yl}-3-fluoro-phenyl)-2-ethyl-butyramide]	15
CCN(CC)C(=O)C(c1ccccc1)N1CCN(c2ccc(NC(=O)C3(c4ccccc4)CCCC3)cc2F)CC1 (stereo not drawn) [Example 125, 1-Phenyl-cyclopentanecarboxylic acid {4-[4-(diethylcarbamoyl-phenyl-methyl)-piperazin-1-yl]-3-fluoro-phenyl}-amide]	20
CCC(CC)C(=O)Nc1ccc(N2CCN(C(C(=O)N(CC)CC)c3cccc(OC)c3)CC2)c(F)c1 (stereo not drawn) [Example 129, N-(4-{4-[Diethylcarbamoyl-(3-methoxy-phenyl)-methyl]-piperazin-1-yl}-3-fluoro-phenyl)-2-ethyl-butyramide]	40
CCN(CC)C(=O)C(c1ccccc1)N1CCN(c2ccc(NC(=O)C3(C)CCCCC3)cc2F)CC1 (stereo not drawn) [Example 136, 1-Methyl-cyclohexanecarboxylic acid {4-[4-(diethylcarbamoyl-phenyl-methyl)-piperazin-1-yl]-3-fluoro-phenyl}-amide]	70
CC[C@H](C)C(=O)Nc1ccc(N2CCN(C(C(=O)N(CC)CC)c3ccccc3)CC2)c(F)c1 (stereo partly drawn) [Example 137, (S)—N-{4-[4-(Diethylcarbamoyl-phenyl-methyl)-piperazin-1-yl]-3-fluoro-phenyl}-2-methyl-butyramide]	70
CCN(CC)C(=O)C(c1ccccc1)N1CCN(c2ccc(NC(=O)C(C)(C)c3ccc(Cl)cc3)cc2F)CC1 (stereo not drawn) [Example 139, 2-(4-Chloro-phenyl)-N-{4-[4-(diethylcarbamoyl-phenyl-methyl)-piperazin-1-yl]-3-fluoro-phenyl}-isobutyramide]	72

Results, then the compound that gave them:

IC50 [nM]	Compound
25	CCN(CC)C(=O)C(c1ccccc1)C1CCN(c2ccc(NC(=O)[C@H]3CCOC3)cc2F)CC1 (stereo partly drawn) [Example 126, (S)-Tetrahydro-furan-3-carboxylic acid {4-[4-(diethylcarbamoyl-phenyl-methyl)-piperidin-1-yl]-3-fluoro-phenyl}-amide]
20	CCOC(=O)C(c1ccccc1)N1CCN(c2ccc(NC(=O)C(CC)CC)cc2F)CC1 (stereo not drawn) [Example 127, {4-[4-(2-Ethyl-butyrylamino)-2-fluoro-phenyl]-piperazin-1-yl}-phenyl-acetic acid ethyl ester]
35	CCN(CC)C(=O)C(c1ccccc1)N1CCN(c2ccc(NC(=O)c3ccnn3CC)cc2F)CC1 (stereo not drawn) [Example 128, 2-Ethyl-2H-pyrazole-3-carboxylic acid {4-[4-(diethylcarbamoyl-phenyl-methyl)-piperazin-1-yl]-3-fluoro-phenyl}-amide]
40	CCNC(=O)C(c1ccccc1)C1CCN(c2ccc(NC(=O)C3CCCC3)cc2C#N)CC1 (stereo not drawn) [Example 130, Cyclopentanecarboxylic acid {3-cyano-4-[4-(ethylcarbamoyl-phenyl-methyl)-piperidin-1-yl]-phenyl}-amide]
50	CCN(CC)C(=O)C(c1ccccc1)C1CCN(c2ccc(NC(=O)c3cccnc3C)cc2F)CC1 (stereo not drawn) [Example 131, N-{4-[4-(Diethylcarbamoyl-phenyl-methyl)-piperidin-1-yl]-3-fluoro-phenyl}-2-methyl-nicotinamide]
55	CCN(CC)C(=O)C(c1ccccc1)C1CCN(c2ccc(NC(=O)[C@@H]3CCOC3)cc2F)CC1 (stereo partly drawn) [Example 132, (R)-Tetrahydro-furan-3-carboxylic acid {4-[4-(diethylcarbamoyl-phenyl-methyl)-piperidin-1-yl]-3-fluoro-phenyl}-amide]
60	CCNC(=O)C(c1ccccc1)C1CCN(c2ccc(NC(=O)[C@H]3CCOC3)cc2C#N)CC1 (stereo partly drawn) [Example 133, (S)-Tetrahydro-furan-3-carboxylic acid {3-cyano-4-[4-(ethylcarbamoyl-phenyl-methyl)-piperidin-1-yl]-phenyl}-amide]
80	CCN(CC)C(=O)C(c1ccccc1)C1CCN(c2ccc(NC(=O)Cc3cscc3C)cc2F)CC1 (stereo not drawn) [Example 134, N,N-Diethyl-2-(1-{2-fluoro-4-[2-(4-methyl-thiophen-3-yl)-acetylamino]-phenyl}-piperidin-4-yl)-2-phenyl-acetamide]
60	CCN(CC)C(=O)C(c1ccccc1)N1CCN(c2ccc(NC(=O)C3CCC3)cc2F)CC1 (stereo not drawn) [Example 135, Cyclobutanecarboxylic acid {4-[4-(diethylcarbamoyl-phenyl-methyl)-piperazin-1-yl]-3-fluoro-phenyl}-amide]
70	CCC(CC)C(=O)Nc1ccc(N2CCC(=C(C(=O)N(CC)CC)c3cccc(F)c3)CC2)c(F)c1 [Example 138, N-(4-{4-[Diethylcarbamoyl-(3-fluoro-phenyl)-methylene]-piperidin-1-yl}-3-fluoro-phenyl)-2-ethyl-butyramide]
80	CCN(CC)C(=O)C(c1ccccc1)C1CCN(c2ccc(NC(=O)C(C)C)cc2F)CC1 (stereo not drawn) [Example 140, N-{4-[4-(Diethylcarbamoyl-phenyl-methyl)-piperidin-1-yl]-3-fluoro-phenyl}-isobutyramide]
